Test results reported in PubChem BioAssay (NCI).
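Interpolation was linear, between the two tested concentrations surrounding the appropriate level; five concentrations were tested over 48 hours in 96-well plates. GI50 = concentration required for 50% inhibition of growth. Definition used: TGI = concentration required for complete inhibition of growth.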

How the values were obtained:
Test in all cases: NCI-60 cell line screen, 48 h
SK-OV-3 ovarian = system: SK-OV-3 ovarian
OVCAR-3 ovarian = system: OVCAR-3 ovarian
OVCAR-5 ovarian = system: OVCAR-5 ovarian
LOX IMVI melanoma = system: LOX IMVI melanoma
NCI-H522 lung = system: NCI-H522 lung
HOP-62 NSCLC = system: HOP-62 NSCLC
MDA-MB-231 breast = system: MDA-MB-231 breast
DU-145 prostate = system: DU-145 prostate
SF-539 CNS = system: SF-539 CNS
NCI-H460 lung = system: NCI-H460 lung
786-0 renal = system: 786-0 renal
MALME-3M melanoma = system: MALME-3M melanoma
HOP-92 NSCLC = system: HOP-92 NSCLC
HT29 colon = system: HT29 colon
NCI-H23 lung = system: NCI-H23 lung
SF-268 CNS = system: SF-268 CNS
COLO 205 colon = system: COLO 205 colon
PC-3 prostate = system: PC-3 prostate
RPMI-8226 leukemia = system: RPMI-8226 leukemia
UO-31 renal = system: UO-31 renal
U251 CNS = system: U251 CNS
UACC-62 melanoma = system: UACC-62 melanoma
MDA-MB-435 = system: MDA-MB-435
A498 renal = system: A498 renal
IGROV1 ovarian = system: IGROV1 ovarian
ACHN renal = system: ACHN renal
K-562 leukemia = system: K-562 leukemia
HS 578T breast = system: HS 578T breast
SW-620 colon = system: SW-620 colon
RXF 393 renal = system: RXF 393 renal
SK-MEL-28 melanoma = system: SK-MEL-28 melanoma
SNB-75 CNS = system: SNB-75 CNS
MOLT-4 leukemia = system: MOLT-4 leukemia
SK-MEL-5 melanoma = system: SK-MEL-5 melanoma
HCT-15 colon = system: HCT-15 colon
NCI-H226 lung = system: NCI-H226 lung
M14 melanoma = system: M14 melanoma
SNB-19 CNS = system: SNB-19 CNS
EKVX NSCLC = system: EKVX NSCLC
KM12 colon = system: KM12 colon
SF-295 CNS = system: SF-295 CNS
SK-MEL-2 melanoma = system: SK-MEL-2 melanoma
MCF7 breast = system: MCF7 breast
HL-60(TB) leukemia = system: HL-60(TB) leukemia
SN12C renal = system: SN12C renal
NCI/ADR-RES ovarian = system: NCI/ADR-RES ovarian
UACC-257 melanoma = system: UACC-257 melanoma
T-47D breast = system: T-47D breast
OVCAR-8 ovarian = system: OVCAR-8 ovarian
TK-10 renal = system: TK-10 renal
BT-549 breast = system: BT-549 breast
CAKI-1 renal = system: CAKI-1 renal
HCC-2998 colon = system: HCC-2998 colon
CCRF-CEM leukemia = system: CCRF-CEM leukemia
SR leukemia = system: SR leukemia
A549 NSCLC = system: A549 NSCLC
HCT-116 colon = system: HCT-116 colon
OVCAR-4 ovarian = system: OVCAR-4 ovarian
MDA-N = system: MDA-N

`CS(=O)(=O)Nc1ccc(N=Cc2c(O)[nH]c3ccccc23)cc1` showed a GI50 (SK-OV-3 ovarian) greater than 25 µM, a TGI (SK-OV-3 ovarian) greater than 25 µM and a GI50 (OVCAR-3 ovarian) greater than 25 µM. The TGI (OVCAR-3 ovarian) was greater than 25 µM, the GI50 (OVCAR-5 ovarian) was greater than 25 µM and the TGI (OVCAR-5 ovarian) was greater than 25 µM. The GI50 (LOX IMVI melanoma) was greater than 25 µM, the TGI (LOX IMVI melanoma) was greater than 25 µM and the GI50 (NCI-H522 lung) was greater than 25 µM. The TGI (NCI-H522 lung) was greater than 25 µM, the GI50 (HOP-62 NSCLC) was greater than 25 µM and the TGI (HOP-62 NSCLC) was greater than 25 µM. For the same molecule, the GI50 (MDA-MB-231 breast) was greater than 25 µM, the TGI (MDA-MB-231 breast) was greater than 25 µM and the GI50 (DU-145 prostate) was greater than 25 µM. The TGI (DU-145 prostate) was greater than 25 µM, the GI50 (SF-539 CNS) was greater than 25 µM and the TGI (SF-539 CNS) was greater than 25 µM. For the same molecule, the GI50 (NCI-H460 lung) was greater than 25 µM, the TGI (NCI-H460 lung) was greater than 25 µM and the GI50 (786-0 renal) was greater than 25 µM. For the same molecule, the TGI (786-0 renal) was greater than 25 µM, the GI50 (MALME-3M melanoma) was greater than 25 µM and the TGI (MALME-3M melanoma) was greater than 25 µM. The GI50 (HOP-92 NSCLC) was greater than 25 µM, the TGI (HOP-92 NSCLC) was greater than 25 µM and the GI50 (HT29 colon) was greater than 25 µM. The TGI (HT29 colon) was greater than 25 µM, the GI50 (NCI-H23 lung) was greater than 25 µM and the TGI (NCI-H23 lung) was greater than 25 µM. For the same molecule, the GI50 (SF-268 CNS) was greater than 25 µM, the TGI (SF-268 CNS) was greater than 25 µM and the GI50 (COLO 205 colon) was greater than 25 µM. The TGI (COLO 205 colon) was greater than 25 µM, the GI50 (PC-3 prostate) was greater than 25 µM and the TGI (PC-3 prostate) was greater than 25 µM. It also gave a GI50 (RPMI-8226 leukemia) greater than 25 µM, a TGI (RPMI-8226 leukemia) greater than 25 µM and a GI50 (UO-31 renal) greater than 8.56 µM. It also gave a TGI (UO-31 renal) greater than 25 µM, a GI50 (U251 CNS) greater than 25 µM and a TGI (U251 CNS) greater than 25 µM. It also gave a GI50 (UACC-62 melanoma) greater than 25 µM, a TGI (UACC-62 melanoma) greater than 25 µM and a GI50 (MDA-MB-435) greater than 25 µM. It also gave a TGI (MDA-MB-435) greater than 25 µM, a GI50 (A498 renal) greater than 25 µM and a TGI (A498 renal) greater than 25 µM. It also gave a GI50 (IGROV1 ovarian) greater than 25 µM, a TGI (IGROV1 ovarian) greater than 25 µM and a GI50 (ACHN renal) greater than 25 µM. It also gave a TGI (ACHN renal) greater than 25 µM, a GI50 (K-562 leukemia) greater than 25 µM and a TGI (K-562 leukemia) greater than 25 µM. It also gave a GI50 (HS 578T breast) greater than 25 µM, a TGI (HS 578T breast) greater than 25 µM and a GI50 (SW-620 colon) greater than 25 µM. The TGI (SW-620 colon) was greater than 25 µM, the GI50 (RXF 393 renal) was greater than 25 µM and the TGI (RXF 393 renal) was greater than 25 µM. For the same molecule, the GI50 (SK-MEL-28 melanoma) was greater than 25 µM, the TGI (SK-MEL-28 melanoma) was greater than 25 µM and the GI50 (SNB-75 CNS) was greater than 25 µM. The TGI (SNB-75 CNS) was greater than 25 µM, the GI50 (MOLT-4 leukemia) was greater than 25 µM and the TGI (MOLT-4 leukemia) was greater than 25 µM. For the same molecule, the GI50 (SK-MEL-5 melanoma) was greater than 25 µM, the TGI (SK-MEL-5 melanoma) was greater than 25 µM and the GI50 (HCT-15 colon) was greater than 25 µM. The TGI (HCT-15 colon) was greater than 25 µM, the GI50 (NCI-H226 lung) was greater than 25 µM and the TGI (NCI-H226 lung) was greater than 25 µM. The GI50 (M14 melanoma) was greater than 25 µM, the TGI (M14 melanoma) was greater than 25 µM and the GI50 (SNB-19 CNS) was greater than 25 µM. For the same molecule, the TGI (SNB-19 CNS) was greater than 25 µM, the GI50 (EKVX NSCLC) was greater than 25 µM and the TGI (EKVX NSCLC) was greater than 25 µM. The GI50 (KM12 colon) was 1.2 µM, the TGI (KM12 colon) was greater than 25 µM and the GI50 (SF-295 CNS) was greater than 25 µM. It also gave a TGI (SF-295 CNS) greater than 25 µM, a GI50 (SK-MEL-2 melanoma) greater than 25 µM and a TGI (SK-MEL-2 melanoma) greater than 25 µM. The GI50 (MCF7 breast) was greater than 25 µM, the TGI (MCF7 breast) was greater than 25 µM and the GI50 (HL-60(TB) leukemia) was greater than 25 µM. For the same molecule, the TGI (HL-60(TB) leukemia) was greater than 25 µM, the GI50 (SN12C renal) was greater than 25 µM and the TGI (SN12C renal) was greater than 25 µM. It also gave a GI50 (NCI/ADR-RES ovarian) greater than 25 µM, a TGI (NCI/ADR-RES ovarian) greater than 25 µM and a GI50 (UACC-257 melanoma) greater than 25 µM. For the same molecule, the TGI (UACC-257 melanoma) was greater than 25 µM, the GI50 (T-47D breast) was greater than 25 µM and the TGI (T-47D breast) was greater than 25 µM. It also gave a GI50 (OVCAR-8 ovarian) greater than 25 µM, a TGI (OVCAR-8 ovarian) greater than 25 µM and a GI50 (TK-10 renal) greater than 25 µM. It also gave a TGI (TK-10 renal) greater than 25 µM, a GI50 (BT-549 breast) greater than 25 µM and a TGI (BT-549 breast) greater than 25 µM. The GI50 (CAKI-1 renal) was greater than 13.9 µM, the TGI (CAKI-1 renal) was greater than 25 µM and the GI50 (HCC-2998 colon) was greater than 25 µM. It also gave a TGI (HCC-2998 colon) greater than 25 µM, a GI50 (CCRF-CEM leukemia) greater than 20 µM and a TGI (CCRF-CEM leukemia) greater than 25 µM. It also gave a GI50 (SR leukemia) greater than 25 µM, a TGI (SR leukemia) greater than 25 µM and a GI50 (A549 NSCLC) greater than 25 µM. For the same molecule, the TGI (A549 NSCLC) was greater than 25 µM, the GI50 (HCT-116 colon) was greater than 25 µM and the TGI (HCT-116 colon) was greater than 25 µM. It also gave a GI50 (OVCAR-4 ovarian) greater than 25 µM and a TGI (OVCAR-4 ovarian) greater than 25 µM.

Work on `Cn1cnc(N2CCCC2)c(C#N)c1=O` yielded a TGI (OVCAR-3 ovarian) greater than 100 µM, a TGI (OVCAR-5 ovarian) greater than 100 µM and a TGI (MDA-N) greater than 100 µM. It also gave a TGI (LOX IMVI melanoma) greater than 100 µM, a TGI (NCI-H522 lung) greater than 100 µM and a TGI (HOP-62 NSCLC) greater than 100 µM. It also gave a TGI (MDA-MB-231 breast) greater than 100 µM, a TGI (DU-145 prostate) greater than 100 µM and a TGI (SF-539 CNS) greater than 100 µM. It also gave a TGI (NCI-H460 lung) greater than 100 µM, a TGI (786-0 renal) greater than 100 µM and a TGI (MALME-3M melanoma) greater than 100 µM. It also gave a TGI (HOP-92 NSCLC) greater than 100 µM, a TGI (HT29 colon) greater than 100 µM and a TGI (NCI-H23 lung) greater than 100 µM. For the same molecule, the TGI (SF-268 CNS) was greater than 100 µM, the TGI (COLO 205 colon) was greater than 100 µM and the TGI (PC-3 prostate) was greater than 100 µM. For the same molecule, the TGI (RPMI-8226 leukemia) was greater than 100 µM, the TGI (UO-31 renal) was greater than 100 µM and the TGI (U251 CNS) was greater than 100 µM. For the same molecule, the TGI (UACC-62 melanoma) was greater than 100 µM, the TGI (MDA-MB-435) was greater than 100 µM and the TGI (A498 renal) was greater than 100 µM. The TGI (IGROV1 ovarian) was greater than 100 µM, the TGI (ACHN renal) was greater than 100 µM and the TGI (K-562 leukemia) was greater than 100 µM. For the same molecule, the TGI (HS 578T breast) was greater than 100 µM, the TGI (SW-620 colon) was greater than 100 µM and the TGI (RXF 393 renal) was greater than 100 µM. It also gave a TGI (SK-MEL-28 melanoma) greater than 100 µM, a TGI (MOLT-4 leukemia) greater than 100 µM and a TGI (SK-MEL-5 melanoma) greater than 100 µM. For the same molecule, the TGI (HCT-15 colon) was greater than 100 µM, the TGI (NCI-H226 lung) was greater than 100 µM and the TGI (M14 melanoma) was greater than 100 µM. It also gave a TGI (SNB-19 CNS) greater than 100 µM, a TGI (EKVX NSCLC) greater than 100 µM and a TGI (KM12 colon) greater than 100 µM. The TGI (SF-295 CNS) was greater than 100 µM, the TGI (SK-MEL-2 melanoma) was greater than 100 µM and the TGI (MCF7 breast) was greater than 100 µM. It also gave a TGI (HL-60(TB) leukemia) greater than 100 µM, a TGI (SN12C renal) greater than 100 µM and a TGI (NCI/ADR-RES ovarian) greater than 100 µM. The TGI (UACC-257 melanoma) was greater than 100 µM, the TGI (T-47D breast) was greater than 100 µM and the TGI (OVCAR-8 ovarian) was greater than 100 µM. It also gave a TGI (TK-10 renal) greater than 100 µM, a TGI (CAKI-1 renal) greater than 100 µM and a TGI (HCC-2998 colon) greater than 100 µM. For the same molecule, the TGI (CCRF-CEM leukemia) was greater than 100 µM, the TGI (SR leukemia) was greater than 100 µM and the TGI (A549 NSCLC) was greater than 100 µM. It also gave a TGI (HCT-116 colon) greater than 100 µM and a TGI (OVCAR-4 ovarian) greater than 100 µM.
